Measurements taken from ChEMBL document CHEMBL3045238, “Structure-Activity Studies of Insecticidal 2-Methoxy-1, 3, 2-oxazaphospholidine 2-Sulfides against Musca domestica and Tribolium castaneum” (J Pestic Sci, 1990).

How the values were obtained:
Tribolium castaneum = assay: Insecticidal activity against fourth-instar Tribolium castaneum (red flour beetle) assessed as inhibition of larval weight gain at 30 degC measured after 2 days by feeding method; assay type: functional
Musca domestica = assay: Insecticidal activity against female Musca domestica (house fly) assessed as mortality compound topically applied to the abdomen measured per fly after 24 hr; assay type: functional

COP1(=S)NCC(c2ccc3ccccc3c2)O1 (configuration not stated)
I50 (Tribolium castaneum): 11 ppm
LD50 (Musca domestica): 0.64 µg

COP1(=S)NCC(c2ccc(-c3ccccc3)cc2)O1 (configuration not stated)
I50 (Tribolium castaneum): 62 ppm
LD50 (Musca domestica): >1 µg

COc1ccccc1C1CNP(=S)(OC)O1 (configuration not stated)
I50 (Tribolium castaneum): 41 ppm
LD50 (Musca domestica): >1 µg

COc1cccc(C2CNP(=S)(OC)O2)c1 (configuration not stated)
I50 (Tribolium castaneum): 46 ppm
LD50 (Musca domestica): 0.18 µg
pLD50 (Musca domestica): 3.16

COc1cccc(C2(C)CNP(=S)(OC)O2)c1 (configuration not stated)
I50 (Tribolium castaneum): >100 ppm
LD50 (Musca domestica): >1 µg

COc1cccc(C2CNP(=S)(OC)O2)c1OC (configuration not stated)
I50 (Tribolium castaneum): 6.6 ppm
LD50 (Musca domestica): 0.53 µg

COc1ccc(OC)c(C2CNP(=S)(OC)O2)c1 (configuration not stated)
I50 (Tribolium castaneum): 22 ppm
LD50 (Musca domestica): >1 µg

COc1ccc(C2CNP(=S)(OC)O2)cc1OC (configuration not stated)
I50 (Tribolium castaneum): >100 ppm
LD50 (Musca domestica): >1 µg

COc1cc(OC)cc(C2CNP(=S)(OC)O2)c1 (configuration not stated)
I50 (Tribolium castaneum): >100 ppm
LD50 (Musca domestica): 1.12 µg

COc1cc(C2CNP(=S)(OC)O2)cc(OC)c1OC (configuration not stated)
I50 (Tribolium castaneum): >100 ppm
LD50 (Musca domestica): >1 µg

COP1(=S)NCC(c2ccc3c(c2)OCO3)O1 (configuration not stated)
I50 (Tribolium castaneum): >100 ppm
LD50 (Musca domestica): >1 µg

COP1(=S)NCC(c2cccc(Oc3ccccc3)c2)O1 (configuration not stated)
I50 (Tribolium castaneum): >100 ppm
LD50 (Musca domestica): >1 µg

COP1(=S)NCC(c2cccc([N+](=O)[O-])c2)O1 (configuration not stated)
I50 (Tribolium castaneum): >100 ppm
LD50 (Musca domestica): >1 µg

COP1(=S)NCC(c2ccc([N+](=O)[O-])cc2)O1 (configuration not stated)
I50 (Tribolium castaneum): >100 ppm
LD50 (Musca domestica): >1 µg

COP1(=S)NCC(c2ccc(Cl)cc2Cl)O1 (configuration not stated)
I50 (Tribolium castaneum): >100 ppm
LD50 (Musca domestica): 0.8 µg

COP1(=S)NCC(c2c(Cl)cccc2Cl)O1 (configuration not stated)
I50 (Tribolium castaneum): 49 ppm
LD50 (Musca domestica): >1 µg

COP1(=S)NCC(c2ccc(Cl)c(Cl)c2)O1 (configuration not stated)
I50 (Tribolium castaneum): >100 ppm
LD50 (Musca domestica): >1 µg

COP1(=S)NCC(c2cc(Cl)cc(Cl)c2)O1 (configuration not stated)
I50 (Tribolium castaneum): >100 ppm
LD50 (Musca domestica): >1 µg

COP1(=S)NCC(c2ccccc2F)O1 (configuration not stated)
I50 (Tribolium castaneum): 41 ppm
LD50 (Musca domestica): 0.14 µg
pLD50 (Musca domestica): 3.25

COP1(=S)NCC(C)(c2ccccc2F)O1 (configuration not stated)
I50 (Tribolium castaneum): >100 ppm
LD50 (Musca domestica): 1.26 µg

COP1(=S)NCC(c2cccc(F)c2)O1 (configuration not stated)
I50 (Tribolium castaneum): >100 ppm
LD50 (Musca domestica): 0.16 µg
pLD50 (Musca domestica): 3.19

COP1(=S)NCC(c2ccc(F)cc2)O1 (configuration not stated)
I50 (Tribolium castaneum): >100 ppm
LD50 (Musca domestica): 0.083 µg
pLD50 (Musca domestica): 3.47

COP1(=S)NCC(c2cccc(F)c2F)O1 (configuration not stated)
I50 (Tribolium castaneum): >100 ppm
LD50 (Musca domestica): >1 µg

COP1(=S)NCC(c2ccc(F)cc2F)O1 (configuration not stated)
I50 (Tribolium castaneum): >100 ppm
LD50 (Musca domestica): 0.35 µg

COP1(=S)NCC(c2cc(F)ccc2F)O1 (configuration not stated)
I50 (Tribolium castaneum): >100 ppm
LD50 (Musca domestica): 0.32 µg

COP1(=S)NCC(c2c(F)cccc2F)O1 (configuration not stated)
I50 (Tribolium castaneum): >100 ppm
LD50 (Musca domestica): 0.82 µg

COP1(=S)NCC(c2ccc(F)c(F)c2)O1 (configuration not stated)
I50 (Tribolium castaneum): >100 ppm
LD50 (Musca domestica): 0.59 µg

COP1(=S)NCC(c2cc(F)cc(F)c2)O1 (configuration not stated)
I50 (Tribolium castaneum): >100 ppm
LD50 (Musca domestica): >1 µg

COP1(=S)NCC(c2ccccc2C)O1 (configuration not stated)
I50 (Tribolium castaneum): 35 ppm
LD50 (Musca domestica): 0.27 µg
pLD50 (Musca domestica): 2.95

COP1(=S)NCC(c2cccc(C)c2)O1 (configuration not stated)
I50 (Tribolium castaneum): 15 ppm
LD50 (Musca domestica): >1 µg

COP1(=S)NCC(C)(c2cccc(C)c2)O1 (configuration not stated)
I50 (Tribolium castaneum): >100 ppm
LD50 (Musca domestica): >1 µg

COP1(=S)NCC(c2ccc(C)cc2)O1 (configuration not stated)
I50 (Tribolium castaneum): 5.5 ppm
LD50 (Musca domestica): 0.084 µg
pLD50 (Musca domestica): 3.46

COP1(=S)NCC(c2ccccc2C(F)(F)F)O1 (configuration not stated)
I50 (Tribolium castaneum): >100 ppm
LD50 (Musca domestica): >1 µg

COP1(=S)NCC(c2cccc(C(F)(F)F)c2)O1 (configuration not stated)
I50 (Tribolium castaneum): >100 ppm
LD50 (Musca domestica): >1 µg

COP1(=S)NCC(c2ccc(C(F)(F)F)cc2)O1 (configuration not stated)
I50 (Tribolium castaneum): >100 ppm
LD50 (Musca domestica): >1 µg

COP1(=S)NCC(c2ccc(C)cc2C)O1 (configuration not stated)
I50 (Tribolium castaneum): 33 ppm
LD50 (Musca domestica): 0.73 µg

COP1(=S)NCC(c2cc(C)ccc2C)O1 (configuration not stated)
I50 (Tribolium castaneum): 84 ppm
LD50 (Musca domestica): 0.23 µg

CCc1ccc(C2CNP(=S)(OC)O2)cc1 (configuration not stated)
I50 (Tribolium castaneum): 3.7 ppm
LD50 (Musca domestica): 0.22 µg
pLD50 (Musca domestica): 3.07

COP1(=S)NCC(c2ccc(C(C)C)cc2)O1 (configuration not stated)
I50 (Tribolium castaneum): 5.2 ppm
LD50 (Musca domestica): 0.42 µg
pLD50 (Musca domestica): 2.81

COP1(=S)NCC(c2ccccc2)O1 (configuration not stated)
I50 (Tribolium castaneum): 43 ppm
LD50 (Musca domestica): 0.035 µg
pLD50 (Musca domestica): 3.82

COP1(=S)NCC(C)(c2ccccc2)O1 (configuration not stated)
I50 (Tribolium castaneum): >100 ppm
LD50 (Musca domestica): 0.88 µg

COP1(=S)NCC(c2ccccc2)(C(C)C)O1 (configuration not stated)
I50 (Tribolium castaneum): >100 ppm
LD50 (Musca domestica): >1 µg

CCOC(OCC)C1(c2ccccc2)CNP(=S)(OC)O1 (configuration not stated)
I50 (Tribolium castaneum): >100 ppm
LD50 (Musca domestica): >1 µg

COP1(=S)NCC(c2ccccc2)(c2ccccc2)O1 (configuration not stated)
I50 (Tribolium castaneum): >100 ppm
LD50 (Musca domestica): >1 µg

COP1(=S)NCC(Cc2ccccc2)O1 (configuration not stated)
I50 (Tribolium castaneum): >100 ppm
LD50 (Musca domestica): >1 µg

COP1(=S)NCC(CCc2ccccc2)O1 (configuration not stated)
I50 (Tribolium castaneum): >100 ppm
LD50 (Musca domestica): >1 µg

COP1(=S)NCC(C(C)c2ccccc2)O1 (configuration not stated)
I50 (Tribolium castaneum): >100 ppm
LD50 (Musca domestica): >1 µg

COP1(=S)NCC(c2cccc3ccccc23)O1 (configuration not stated)
I50 (Tribolium castaneum): 25 ppm
LD50 (Musca domestica): 0.68 µg

COP1(=S)NCC(C)(c2cccc3ccccc23)O1 (configuration not stated)
I50 (Tribolium castaneum): >100 ppm
LD50 (Musca domestica): >1 µg

COP1(=S)NCC(C2CC=CCC2)O1 (configuration not stated)
I50 (Tribolium castaneum): >100 ppm
LD50 (Musca domestica): >1 µg

COP1(=S)NCC(C2CCCCC2)O1 (configuration not stated)
I50 (Tribolium castaneum): >100 ppm
LD50 (Musca domestica): >1 µg

COP1(=S)NCC2(CCCCC2)O1 (configuration not stated)
I50 (Tribolium castaneum): >100 ppm
LD50 (Musca domestica): >1 µg

COP1(=S)NCC2(CCCC(C)C2)O1 (configuration not stated)
I50 (Tribolium castaneum): >100 ppm
LD50 (Musca domestica): >1 µg

COP1(=S)NCC2(CC3CCC2(C)C3(C)C)O1 (configuration not stated)
I50 (Tribolium castaneum): >100 ppm
LD50 (Musca domestica): >1 µg

COP1(=S)NCC2(O1)C1CCC(C1)C2(C)C (configuration not stated)
I50 (Tribolium castaneum): >100 ppm
LD50 (Musca domestica): >1 µg

COP1(=S)NCC2(CCCc3ccccc32)O1 (configuration not stated)
I50 (Tribolium castaneum): >100 ppm
LD50 (Musca domestica): >1 µg

COP1(=S)NCC2(Cc3ccccc3C2)O1 (configuration not stated)
I50 (Tribolium castaneum): >100 ppm
LD50 (Musca domestica): >1 µg

COP1(=S)NCC(c2ccccc2Br)O1 (configuration not stated)
I50 (Tribolium castaneum): 49 ppm
LD50 (Musca domestica): 0.5 µg
pLD50 (Musca domestica): 2.79

COP1(=S)NCC(c2cccc(Br)c2)O1 (configuration not stated)
I50 (Tribolium castaneum): 59 ppm
LD50 (Musca domestica): 0.2 µg
pLD50 (Musca domestica): 3.19

COP1(=S)NCC(C)(c2cccc(Br)c2)O1 (configuration not stated)
I50 (Tribolium castaneum): >100 ppm
LD50 (Musca domestica): 0.29 µg

COP1(=S)NCC(c2ccc(Br)cc2)O1 (configuration not stated)
I50 (Tribolium castaneum): >100 ppm
LD50 (Musca domestica): 0.21 µg
pLD50 (Musca domestica): 3.13

COP1(=S)NCC(c2ccccc2Cl)O1 (configuration not stated)
I50 (Tribolium castaneum): 72 ppm
LD50 (Musca domestica): 0.53 µg
pLD50 (Musca domestica): 2.7

COP1(=S)NCC(c2cccc(Cl)c2)O1 (configuration not stated)
I50 (Tribolium castaneum): >100 ppm
LD50 (Musca domestica): 0.24 µg
pLD50 (Musca domestica): 3.04

COP1(=S)NCC(c2ccc(Cl)cc2)O1 (configuration not stated)
I50 (Tribolium castaneum): >100 ppm
LD50 (Musca domestica): 0.16 µg
pLD50 (Musca domestica): 3.22

COP1(=S)NCC(c2cccc(Cl)c2Cl)O1 (configuration not stated)
I50 (Tribolium castaneum): >100 ppm
LD50 (Musca domestica): >1 µg

COP(=S)(OC)Oc1ccc([N+](=O)[O-])c(C)c1 [FENITROTHION]
I50 (Tribolium castaneum): 4.7 ppm
LD50 (Musca domestica): 0.051 µg
